In ChEMBL document CHEMBL1154581, “Polyhydroxylated sterols from the octocoral Dendronephthya gigantea” (J Nat Prod, 2000):
In brackets after ≈: the same amount, converted by molar mass.

Test system: L1210
Experiment: Cytotoxicity against mouse L1210 cells
Format: functional, cell-based

CC(=O)OC[C@]12CC[C@H]3[C@@H](C[C@@H](O)[C@@]4(O)C[C@@H](O)CC[C@]34C)[C@@H]1[C@H](O)C[C@@H]2[C@H](C)CCCC(C)C [DENDRONESTEROL B]
IC50: 5.2 µg/mL (≈ 10.5 µM)
